Where a name gives a salt, the structure may show the parent alone. Marks after values point to notes of the source that are not given here.
Assays:
[1] = biological target: acetylcholinesterase (AChE) (Homo sapiens, UniProt P22303); assay: In vitro acetylcholinesterase (AChE) activity assay, method of Ellman et al. with acetylthiocholine iodide as substrate; type: biochemical; settings: for IC50: Mean ± SD of three replicates, synthetic conjugates, read-out: Acetylcholinesterase inhihitory activity IC50 (converted)
Protocol: The acetylcholinesterase (AChE) assay was performed by the method of Ellman et al., with minor modification, using acetylthiocholine Iodide as a substrate (G. L. Ellman, et al., “A new and rapid colorimetric determination of acetylcholinesterase activity,” Biochem. Pharmacol. (1961) 7: 88-95). Ellman's reaction mixture was made from a combination of 10 mM Acetylthiocholine iodide and 0.5 mM 5,5′-dithio-bis-(2-nitrobenzoic acid) in a 0.05 M sodium phosphate buffer (pH 7.2). The rates of hydrolysis by AChE were monitored spectrophotometrically using a 96-well microtiter plate reader. Each test sample (10 μl) and 0.05 M sodium phosphate buffer (30 μl) was mixed with the enzyme solution (10 μl). An Ellman's reaction mixture (50 μl) was further added to give a final volume of 100 μl, and the mixture was incubated at 37° C. for 30 min. Absorbance at 450 nm was recorded immediately after adding the Ellman's reaction mixture. Reading was repeated for 10 min at 2 min intervals to verify that the reaction occurred linearly. Blank reaction was measured by substituting saline for the enzyme (Y. K. Chung, et al., “Inhibitory effect of ursolic acid purified from Origanum majorana L. on the acetylcholinesterase,” Mol. Cells (2001) 11: 137-143).
The acetylcholinesterase (AChE) assay was performed by the method of Ellman et. al., with minor modification, using acetylthiocholine Iodide as a substrate (G. L. Ellman, et al., “A new and rapid colorimetric determination of acetylcholinesterase activity,” Biochem. Pharmacol. (1961) 7: 88-95). Ellman's reaction mixture was made from a combination of 10 mM Acetylthiocholine iodide and 0.5 mM 5,5′-dithio-bis-(2-nitrobenzoic acid) in a 0.05 M sodium phosphate buffer (pH 7.2). The rates of hydrolysis by AChE were monitored spectrophotometrically using a 96-well microtiter plate reader. Each test sample (10 μl) and 0.05 M sodium phosphate buffer (30 μl) was mixed with the enzyme solution (10 μl). An Ellman's reaction mixture (50 μl) was further added to give a final volume of 100 μl, and the mixture was incubated at 37° C. for 30 min. Absorbance at 450 nm was recorded immediately after adding the Ellman's reaction mixture. Reading was repeated for 10 min at 2 min intervals to verify that the reaction occurred linearly. Blank reaction was measured by substituting saline for the enzyme (Y. K. Chung, et al., “Inhibitory effect of ursolic acid purified from Origanum majorana L. on the acetylcholinesterase,” Mol. Cells (2001) 11: 137-143).

[2] = tested on: Scopolamine-induced amnesic mice; assay: Scopolamine hydrobromide-induced amnesia, transfer latency on elevated plus maze; settings: for Transfer Latency, Day 8: learning trial; for % Decrease in Transfer Latency, Mean ± SD: Table 16
Protocol: The elevated plus maze is used to measure the memory learning activity in mice; however, transfer latency, i.e., the time elapsed between the movement of the animal from an open to an enclosed arm was markedly shortened if the animal had previously experienced entering open and closed arms.
Retention was recorded after 24 hrs (9th day) and after an interval of one week (16th day).
Drug protocol. The animals were divided into 7 groups (Group I-VII) of eight animals in each group. Group I received vehicle (0.3% CMC) only and served as vehicle control. Groups II-VII were treated with the respective test drugs, as per the details mentioned in Table 1 below, for 16 days. […] Transfer Latency was recorded after 45 minutes of the drug administration on 8th day (learning trial) and 24 hrs (9th day) and one week (16th day) after learning trial.
Retention in elevated plus maze test was used to assess the memory functions in test animals. The plus maze consists of two open opposite arms, (50×10 cm) length×width, crossed with two enclosed arms of same dimensions with walls 40 cm high. The arms are connected with a central square, (10×10 cm) to give the apparatus a plus-sign appearance. The maze was kept elevated 50 cm above the floor in a dimly lit room. On day 8, mice were individually placed on far end of one of the open arms facing away from the center and transfer latency (TL) on day 8 was recorded. TL is the time taken by the mouse to move into any one of the covered arms with all its four legs. […] On day 9, the mice were again placed on the far end of the open arm and time taken by the mice to enter the enclosed arm, transfer latency (TL) day 9, was recorded. Similarly after an interval of one week, on day 16, the transfer latency (TL) day 16 was again recorded.
The retention scores were obtained for each animal by calculating percent decrease in latency period by the formula: % decrease in TL=(L1−L0/L0)×100
where, L0=initial transfer latency period in seconds, and L1=transfer latency after 24 hrs, or one week.

[3] = tested on: brain tissue Malondialdehyde (MDA); type: in vivo, Swiss Albino mice; settings: day 16; test sample p.o. (50/20/30/1/1 mg/kg) + SH 0.5 mg/kg i.p.; mean ± SEM, n=4
Excerpt: Estimation of lipid peroxidation.
Alzheimer's disease (AD) is an irreversible neurodegenerative disorder having symptoms including confusion, memory loss, and mood swings. The beta-amyloid peptide (BAP), with 39-42 amino acid residues, plays a significant role in the development of AD. Although there is no cure for AD, it can be managed with available drugs, but only to a small degree in a small subset of patients. […] In this study, the lipid peroxidation levels in brains of different treatment groups were measured by estimating the brain tissue Malondialdehyde (MDA) concentration. 5.

[4] = tested on: mice; assay: Open-field exploratory behavior test, anxiety paradigm; design: species or system Swiss Albino mice; settings: mouse, in vivo
Protocol: Drug preparation and administration of doses.
Study design. The behavioral tests conducted with multiple seven-dose schedules. The mice were tested only once after the completion of the drug treatment schedule in the elevated plus maze and open field. The studies were carried out in a sound proof room to avoid disturbances to the animals during the behavioral studies. Exposure to a novel environment is associated with emotional disturbance and anxiety. […] Anxiety is also associated with augmented autonomic activity resulting in increased defecation and urination. All these effects are accentuated by anxiogenic drugs and attenuated by anxiolytics. Standard screening procedures such as open field method and elevated plus maze test were used to screen the anxiolytic effect of drugs in comparison with a standard drug, Diazepam.
Open-field exploratory behavior test. The open field exploratory apparatus is similar to that of Bronstein (P. M. Bronstein, “Open field behaviour of the rat as a function of age: cross sectional and longitudinal investigations,” J. Comp. Physiol. Psycol. (1972) 80: 335-341). It is made of plywood and consists of squares (61×61 cm) with high walls. […] The ratio between the number of times the animal crossed the central and the number of times the animal crossed the peripheral square is calculated.

[5] = Example 7B, synthetic conjugates 1 and 5 mg/kg p.o. 16 days
[6] = Table 15, conjugate 1 mg/kg p.o. + SH 0.5 mg/kg i.p., mean ± SD, n=8
[7] = Table 15, conjugate 1 mg/kg p.o., mean ± SD, n=8
[8] = Table 15, conjugate 5 mg/kg p.o. + SH 0.5 mg/kg i.p., mean ± SD, n=8
[9] = Table 15, conjugate 5 mg/kg p.o., mean ± SD, n=8
[10] = after 24 h (day 9), conjugate 1 mg/kg p.o. + SH 0.5 mg/kg i.p., n=8
[11] = after 24 h (day 9), conjugate 5 mg/kg p.o. + SH 0.5 mg/kg i.p., n=8
[12] = Table 17, after 1 week (day 16), conjugate 1 mg/kg p.o. + SH 0.5 mg/kg i.p., n=8
[13] = Table 17, after 1 week (day 16), conjugate 5 mg/kg p.o. + SH 0.5 mg/kg i.p., n=8
[14] = Table 2, SH 0.5 mg/kg i.p. alone, mean ± SEM
[15] = Table 15, SH 0.5 mg/kg i.p. alone, mean ± SD

Sequence of acetylcholinesterase (AChE) (P22303 32-614, species assumed): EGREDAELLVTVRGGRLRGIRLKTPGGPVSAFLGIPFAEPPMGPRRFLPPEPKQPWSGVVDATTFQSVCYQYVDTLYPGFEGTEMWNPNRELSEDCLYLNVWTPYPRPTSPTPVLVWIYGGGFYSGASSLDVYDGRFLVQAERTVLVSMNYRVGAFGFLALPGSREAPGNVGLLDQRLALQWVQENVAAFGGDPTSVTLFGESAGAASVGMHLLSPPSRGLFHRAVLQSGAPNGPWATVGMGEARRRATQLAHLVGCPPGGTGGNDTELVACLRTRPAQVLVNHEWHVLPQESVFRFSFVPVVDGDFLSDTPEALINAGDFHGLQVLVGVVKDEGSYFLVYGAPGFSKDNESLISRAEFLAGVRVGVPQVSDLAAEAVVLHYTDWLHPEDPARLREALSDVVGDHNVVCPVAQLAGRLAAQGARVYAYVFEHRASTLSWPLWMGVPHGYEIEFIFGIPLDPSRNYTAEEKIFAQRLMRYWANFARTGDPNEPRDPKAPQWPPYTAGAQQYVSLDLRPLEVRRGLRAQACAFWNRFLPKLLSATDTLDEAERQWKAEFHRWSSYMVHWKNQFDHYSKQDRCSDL

CC1=C(CO)C(=O)O[C@@H]([C@@H](C)[C@H]2CC[C@H]3[C@@H]4C[C@H]5O[C@]56[C@@H](O)C(NCCc5c[nH]c7ccccc57)CC(=O)[C@]6(C)[C@H]4CC[C@]23C)C1 (stereo partly shown) [Tryptamino-withaferin-A conjugate]
in vitro acetylcholinesterase inhibitory activity (in words) [1]: good dose-dependent in-vitro acetylcholinesterase inhibitory activity | IC50 [1]: 56.1 µM | effect on Scopolamine-induced amnesia (in words) [2, 5]: significantly attenuated and reversed the Scopolamine-induced amnesia | Transfer Latency, Day 9 [2, 6]: 56.17 ± 21.99^b s | Transfer Latency, Day 16 [2, 6]: 16.50 ± 9.52^bbb s | Transfer Latency, Day 8 [2, 7]: 178.00 ± 117.90 s | Transfer Latency, Day 9 [2, 8]: 51.67 ± 15.28 ^b s | Transfer Latency, Day 16 [2, 8]: 15.17 ± 10.09^bbb s | Transfer Latency, Day 8 [2, 9]: 159.00 ± 126.20 s | % Decrease in Transfer Latency, Mean ± SD [2, 10]: 54.97 ± 27.54% | % Decrease in Transfer Latency, Mean ± SD [2, 11]: 59.93 ± 13.31% | % Decrease in Transfer Latency, Mean ± SEM [2, 12]: 88.10 ± 6.17^b % | % Decrease in Transfer Latency, Mean ± SEM [2, 13]: 85.72 ± 11.96^bb %

COc1ccc2[nH]cc(CCNC3CC(=O)[C@]4(C)[C@H]5CC[C@]6(C)[C@@H]([C@H](C)[C@H]7CC(C)=C(CO)C(=O)O7)CC[C@H]6[C@@H]5C[C@H]5O[C@]54[C@H]3O)c2c1 (stereo partly shown)
in vitro acetylcholinesterase inhibitory activity (in words) [1]: good dose-dependent in-vitro acetylcholinesterase inhibitory activity | IC50 [1]: 149 µM | effect on Scopolamine-induced amnesia (in words) [2, 5]: significantly attenuated and reversed the Scopolamine-induced amnesia | Transfer Latency, Day 9 [2, 6]: 76.63 ± 33.95 s | Transfer Latency, Day 16 [2, 6]: 43.13 ± 12.43 s | Transfer Latency, Day 8 [2, 7]: 139.1 ± 25.05 s | Transfer Latency, Day 9 [2, 8]: 37.25 ± 4.43^bb s | Transfer Latency, Day 16 [2, 8]: 18.00 ± 4.14^bbb s | Transfer Latency, Day 8 [2, 9]: 141.00 ± 35.66 s | % Decrease in Transfer Latency, Mean ± SD [2, 10]: 45.62 ± 16.51% | % Decrease in Transfer Latency, Mean ± SD [2, 11]: 72.18 ± 6.60. % | % Decrease in Transfer Latency, Mean ± SEM [2, 12]: 69.13 ± 5.38% | % Decrease in Transfer Latency, Mean ± SEM [2, 13]: 85.79 ± 9.92^bb %

CN1[C@@H]2C[C@@H](OC(=O)[C@H](CO)c3ccccc3)C[C@H]1[C@@H]1O[C@@H]12 [SH, Scopolamine Hydrobromide, reference compound]
induction of amnesia (in words) ([2]; SH 0.5 mg/kg i.p. alone vs vehicle): produced amnesia in animals | Transfer Latency, Day 8 ([2]; Table 2, SH 0.5 mg/kg i.p. alone group, mean ± SEM): 171.50 ± 16.08 s | Transfer Latency, Day 9 [2, 14]: 143.90 ± 15.30 s | Transfer Latency, Day 16 [2, 14]: 133.10 ± 15.95 s | % Decrease in Transfer Latency, Mean ± SEM ([2]; Table 3, after 24 h (day 9), SH 0.5 mg/kg i.p. alone): 14.91 ± 5.75% | % Decrease in Transfer Latency, Mean ± SEM ([2]; Table 4, after 1 week (day 16), SH 0.5 mg/kg i.p. alone): 22.11 ± 5.03% | Transfer Latency, Day 8 ([2]; Table 15, SH 0.5 mg/kg i.p. alone group, mean ± SD): 160.00 ± 66.68 s | Transfer Latency, Day 9 [2, 15]: 106.00 ± 42.81^aa s | Transfer Latency, Day 16 [2, 15]: 48.17 ± 12.73 ^aaa s | % Decrease in Transfer Latency, Mean ± SD ([2]; after 24 h (day 9), SH 0.5 mg/kg i.p. alone): 29.86 ± 17.79% | % Decrease in Transfer Latency, Mean ± SEM ([2]; Table 17, after 1 week (day 16), SH 0.5 mg/kg i.p. alone): 63.54 ± 18.87^aa %

CC1=C(CO)C(=O)O[C@@H]([C@@H](C)[C@H]2CC[C@H]3[C@@H]4C[C@H]5O[C@]56[C@@H](O)C=CC(=O)[C@]6(C)[C@H]4CC[C@]23C)C1 [Withaferin-A, Withaferin A, reference compound]
in vitro acetylcholinesterase inhibitory activity (in words) [1]: only feeble inhibitory activity | MDA Content, brain tissue [3]: 4.77 ± 0.07 nmol/mL | anxiolytic effect in open field test (in words) [4]: did not show any anxiolytic effect | effect on Scopolamine-induced amnesia (in words) ([2]; Example 4A, WS extract and fractions p.o. 16 days): did not protect from or attenuate the Scopolamine-induced amnesia | Transfer Latency, Day 9 ([2]; Table 2, 24 h after SH 0.5 mg/kg i.p., test sample p.o. (50/20/30/1/1 mg/kg), mean ± SEM, n=8): 124.00 ± 13.27 s | Transfer Latency, Day 8 ([2]; Table 2, test sample p.o. daily (WS-74 50, Ace Sol 20, Ace Insol 30, IAEF-A 1, Withaferin-A 1 mg/kg), mean ± SEM, n=8): 180.40 ± 8.04 s | Transfer Latency, Day 16 ([2]; Table 2, one week after SH 0.5 mg/kg i.p., test sample p.o. 16 days (50/20/30/1/1 mg/kg), mean ± SEM, n=8): 114.90 ± 13.10 s | % Decrease in Transfer Latency, Mean ± SEM ([2]; Table 3, after 24 h (day 9), test sample p.o. (50/20/30/1/1 mg/kg) + SH 0.5 mg/kg i.p., n=8): 29.28 ± 9.43% | % Decrease in Transfer Latency, Mean ± SEM ([2]; Table 4, after 1 week (day 16), test sample p.o. (50/20/30/1/1 mg/kg) + SH 0.5 mg/kg i.p., n=8): 34.33 ± 9.30%

Reference: US10449206B2, “Indolealkylamino-withasteroid conjugates and method of use” (Natreon, Inc., priority 2011, dated 2019)
